Patent publication US20190038759A1 (priority 2017, published 2019)
Converted amounts (≈) assume the structure as drawn. Like-named read-outs stand apart in the source and are kept apart here. Non-standard residues stand in square brackets, D forms with d. Residues, ends and D or L forms follow the SMILES beside them. *: point of attachment. Propyl(3-guanidino) = N=C(N)NCCC*; Hyp = O=C(O)[C@@H]1C[C@@H](O)CN1; Isobutyl = CC(C)C*

Experiments:
[1] = system: intracellular pathogens in J774A.1 cells; type: cell-based; conditions: infected J774A.1 macrophages
[2] = system: LPS-induced activation of the LAL enzyme (Limulus amoebocyte lysate); test: LPS binding: inhibition of LPS-induced activation of LAL enzyme; type: biochemical; conditions: at 10 (unit not given)
Salmonella enteritidis [3] = system: Salmonella enteritidis
[4] = system: S. aureus (ATCC 6538) biofilm; test: Disruption of established biofilms, crystal violet; type: cell-based
Method: (§1) The compounds of the present disclosure were examined for their ability to disrupt bacterial biofilms using the microtiter dish biofilm formation assay. Briefly, overnight cultures of S. aureus (ATCC 6538) and S. epidermidis (ATCC 35984) were diluted 1:100 in TSB supplemented with 1% glucose. Overnight cultures of P. aeruginosa PAO1 and A. baumannii ATCC BAA-1605 were diluted 1:100 in M63 minimal medium supplemented with magnesium sulfate, glucose and casamino acids. Bacterial suspensions were incubated in 96-well plates at 37° C. for 24 hours. After removing media, wells were rinsed with PBS to remove planktonic bacteria before re-filling wells with fresh media. Compounds were added at specific concentrations and plates were incubated at 37° C. for 24 hours. After incubation, wells were washed and biofilms were stained with 0.5% (w/v) crystal violet for 30 minutes. The dye was solubilized with ethanol (95%) and the biofilm mass was quantified at OD595. Experiments were done in triplicate and repeated twice independently.

[5] = system: A. baumannii ATCC BAA-1605 biofilm; test: Disruption of established biofilms, crystal violet; type: cell-based; conditions: 32 μM
Method: as §1

[6] = system: P. aeruginosa PAO1 biofilm; test: Disruption of established biofilms, crystal violet; type: cell-based; conditions: 32 μM
Method: as §1

[7] = system: S. epidermidis ATCC 35984 biofilm; test: Disruption of established biofilms, crystal violet; type: cell-based; conditions: S. epidermidis mature biofilm, 64 μM
Method: as §1

[8] = system: Mycobacterium tuberculosis H37Ra
Shigella flexneri [9] = system: Shigella flexneri
Brucella abortus [10] = system: Brucella abortus
[11] = system: tumor necrosis factor-α (TNF-α); test: Anti-inflammatory effect on LPS stimulated macrophages, ELISA; type: cell-based; conditions: 10 μM, LPS 150 ng/ml, J774A.1, six hours
Method: (§2) The anti-inflammatory effect of compounds on LPS stimulated macrophages, J774A.1 cells was investigated. Next, the cells were stimulated with LPS (150 ng/ml final concentration) in the presence of 10 μM of compounds. Cells that were stimulated with LPS alone and untreated cells served as controls. Cells were incubated for six hours at 37° C. and supernatants from each treatment were collected and stored at −20° C. until use. Cytokine detection of tumor necrosis factor-α (TNF-α) and interleukin-6 (IL-6) in supernatants was done using ELISA as described before following the manufacturer's instructions^24,25. Cytokine levels were expressed as percent change relative to the LPS-stimulated control, using triplicate samples for each treatment condition.

interleukin-6 (IL-6) = test: as above; type: cell-based; conditions: 10 μM, LPS 150 ng/ml, J774A.1, six hours
Method: as §2

Mycobacterium smegmatis [12] = system: Mycobacterium smegmatis
[13] = system: S. epidermidis (ATCC 35984); test: MIC, biofilm-forming clinical isolate, broth microdilution; type: cell-based; conditions: Staphylococcus epidermidis, ATCC35984
K. pneumoniae BAA-1706 = test: MIC against clinical and drug-resistant isolates; type: cell-based; conditions: Klebsiella pneumoniae, BAA1706; Table 3, K. pneumoniae BAA-1706; read-out: Minimum inhibitory concentration (MIC)
C. elegans = conditions: 50 μM
[14] = system: Methicillin-resistant S. aureus USA400; test: MIC against clinical and drug-resistant isolates; type: cell-based; conditions: Staphylococcus aureus; Table 3, MRSA USA400; read-out: Minimum inhibitory concentration (MIC)
S. aureus (ATCC 6538) = test: MIC, biofilm-forming clinical isolate, broth microdilution; type: cell-based; conditions: Staphylococcus aureus, ATCC6538
[15] = system: Escherichia coli (ATCC 25922); test: In vitro antimicrobial activity (MIC), OD-based growth; conditions: ATCC25922
A. baumannii BAA-1605 = test: MIC against clinical and drug-resistant isolates; type: cell-based; conditions: Acinetobacter baumannii, BAA1605; Table 3, A. baumannii BAA-1605; read-out: Minimum inhibitory concentration (MIC)
[16] = system: Mycobacterium tuberculosis H37Ra; test: microbe, parasite or virus in culture
Brucella abortus [17] = test: microbe, parasite or virus in culture
[18] = system: Staphylococcus aureus (ATCC 25923); test: In vitro antimicrobial activity (MIC), OD-based growth; conditions: ATCC25923
P. aeruginosa PAO1 = test: MIC against clinical and drug-resistant isolates; type: cell-based; conditions: Pseudomonas aeruginosa; Table 3, P. aeruginosa PAO1; read-out: Minimum inhibitory concentration (MIC)
Shigella flexneri [19] = test: microbe, parasite or virus in culture
[20] = system: Colistin-resistant P. aeruginosa 1109; test: microbe, parasite or virus in culture; type: cell-based; conditions: Table 3, colistin-resistant P. aeruginosa 1109, read-out: Minimum inhibitory concentration (MIC)
[21] = system: Vancomycin-resistant E. faecium ATCC 700221; test: MIC against clinical and drug-resistant isolates; type: cell-based; conditions: Enterococcus faecium, ATCC700221; Table 3, vancomycin-resistant E. faecium ATCC 700221; read-out: Minimum inhibitory concentration (MIC)
Mycobacterium smegmatis [22] = test: microbe, parasite or virus in culture; conditions: Mycolicibacterium smegmatis
Salmonella enteritidis [23] = test: microbe, parasite or virus in culture; conditions: Salmonella enterica
E. coli (ATCC 25922) = type: cell-based; conditions: at five times MIC

Compound: CC(C)CO[C@@H]1C[C@@H](C(=O)N2C[C@H](OCCCNC(=N)N)C[C@H]2C(=O)N2C[C@H](OCCCNC(=N)N)C[C@H]2C(=O)N2C[C@H](OCC(C)C)C[C@H]2C(=O)N2C[C@H](OCCCNC(=N)N)C[C@H]2C(=O)N2C[C@H](OCCCNC(=N)N)C[C@H]2C(=O)N2C[C@H](OCC(C)C)C[C@H]2C(=O)N2C[C@H](OCCCNC(=N)N)C[C@H]2C(=O)N2C[C@H](OCCCNC(=N)N)C[C@H]2C(=O)N2C[C@H](OCC(C)C)C[C@H]2C(=O)N2C[C@H](OCCCNC(=N)N)C[C@H]2C(=O)N2C[C@H](OCCCNC(=N)N)C[C@H]2C(=O)N2C[C@H](OCC(C)C)C[C@H]2C(N)=O)N(C(=O)CN)C1 [Example P14LRR] (H-G[Hyp](Isobutyl)[Hyp](Propyl(3-guanidino))[Hyp](Propyl(3-guanidino))[Hyp](Isobutyl)[Hyp](Propyl(3-guanidino))[Hyp](Propyl(3-guanidino))[Hyp](Isobutyl)[Hyp](Propyl(3-guanidino))[Hyp](Propyl(3-guanidino))[Hyp](Isobutyl)[Hyp](Propyl(3-guanidino))[Hyp](Propyl(3-guanidino))[Hyp](Isobutyl)-NH2; N-terminus assumed)
- clearance of intracellular bacteria [1]: neither kanamycin nor P14LRR is capable of effectively clearing intracellular bacteria
- inhibition of the LAL enzyme [2]: 71.2%±5
- MIC (Salmonella enteritidis [3]): 32 µM (≈ 83.8 µg/mL)
- disruption of biofilm mass ([4]; S. aureus mature (24 hour) biofilm, 1 μM): not effective
- disruption of biofilm mass ([4]; S. aureus mature biofilm, 8 μM): not effective
- reduction of biofilm mass [5]: 30%
- disruption of biofilm [6]: ineffective
- disruption of biofilm mass [7]: approximately 50%
- MIC [8]: 16 µM (≈ 41.9 µg/mL)
- MIC (Shigella flexneri [9]): 8 µM (≈ 20.9 µg/mL)
- MIC (Brucella abortus [10]): 16 µM (≈ 41.9 µg/mL)
- decrease of TNF-α levels [11]: 68.4%±5.43
- decrease of IL-6 levels (interleukin-6 (IL-6)): 81.92%±0.78
- viability at 72 h, 50 µM (in vivo): > 90%
- MIC (Mycobacterium smegmatis [12]): 8 µM (≈ 20.9 µg/mL)

Compound: NC[C@H]1O[C@H](O[C@H]2[C@H](O)[C@@H](O[C@H]3O[C@H](CO)[C@@H](O)[C@H](N)[C@H]3O)[C@H](N)C[C@@H]2N)[C@H](O)[C@@H](O)[C@@H]1O [kanamycin]
- MIC ([13]; Table 2, S. epidermis clinical isolate that forms biofilms, read-out: MIC): > 128 µM
- MIC ([13]; Table 3, S. epidermidis ATCC 35984, read-out: Minimum inhibitory concentration (MIC)): > 256 µM
- disruption of biofilm mass ([4]; S. aureus mature biofilm, 8 μM): approximately 50%
- MIC (K. pneumoniae BAA-1706): 256 µM (≈ 124 µg/mL)
- viability of C. elegans (C. elegans; glp-4(bn2) I, sek-1(km4), Caenorhabditis elegans, in vivo, 3 days): > 90%
- MIC [14]: 4 µM (≈ 1.94 µg/mL)
- MIC (S. aureus (ATCC 6538); Table 2, S. aureus clinical isolate that forms biofilms, read-out: MIC): 4 µM (≈ 1.94 µg/mL)
- MIC (S. aureus (ATCC 6538); Table 3, S. aureus ATCC 6538, read-out: Minimum inhibitory concentration (MIC)): 2 µM (≈ 0.969 µg/mL)
- MIC [15]: 2 µM (≈ 0.969 µg/mL)
- MIC (A. baumannii BAA-1605): 128 µM (≈ 62 µg/mL)
- decrease of TNF-α levels [11]: 11.41%±4.5
- decrease of IL-6 levels (interleukin-6 (IL-6)): 10%±3.30
- MIC [16]: 2 µM (≈ 0.969 µg/mL)
- MIC (Brucella abortus [17]): 4 µM (≈ 1.94 µg/mL)
- MIC [18]: 2 µM (≈ 0.969 µg/mL)
- MIC (P. aeruginosa PAO1): > 256 µM
- MIC (Shigella flexneri [19]): 2 µM (≈ 0.969 µg/mL)
- MIC ([20]; Pseudomonas aeruginosa): > 256 µM
- MIC [21]: > 256 µM
- MIC (Mycobacterium smegmatis [22]): 8 µM (≈ 3.88 µg/mL)
- MIC (Salmonella enteritidis [23]): 16 µM (≈ 7.75 µg/mL)

Compound: CC(=O)NC[C@H]1CN(c2ccc(N3CCOCC3)c(F)c2)C(=O)O1 [linezolid]
- disruption of biofilm mass ([4]; S. aureus mature biofilm, 8 μM): approximately 50%

Compound: CC[C@H](C)[C@H](NC(=O)CN)C(=O)NCC(=O)N[C@@H](C)C(=O)N[C@H](C(=O)N[C@@H](CC(C)C)C(=O)N[C@@H](CCCCN)C(=O)N[C@H](C(=O)N[C@@H](CC(C)C)C(=O)N[C@H](C(=O)N[C@H](C(=O)NCC(=O)N[C@@H](CC(C)C)C(=O)N1CCC[C@H]1C(=O)N[C@@H](C)C(=O)N[C@@H](CC(C)C)C(=O)N[C@H](C(=O)N[C@@H](CO)C(=O)N[C@@H](Cc1c[nH]c2ccccc12)C(=O)N[C@H](C(=O)N[C@@H](CCCCN)C(=O)N[C@@H](CCCNC(=N)N)C(=O)N[C@@H](CCCCN)C(=O)N[C@@H](CCCNC(=N)N)C(=O)N[C@@H](CCC(N)=O)C(=O)N[C@@H](CCC(N)=O)C(N)=O)[C@@H](C)CC)[C@@H](C)CC)[C@@H](C)O)[C@@H](C)O)C(C)C)C(C)C [melittin]
- viability of C. elegans (C. elegans; after 3 days of treatment): no live worms
- release of beta-galactosidase from E. coli (E. coli (ATCC 25922)): substantial level of release

Compound: CN[C@H](CC(C)C)C(=O)N[C@H]1C(=O)N[C@@H](CC(N)=O)C(=O)N[C@H]2C(=O)N[C@H]3C(=O)N[C@H](C(=O)N[C@H](C(=O)O)c4cc(O)cc(O)c4-c4cc3ccc4O)[C@H](O)c3ccc(c(Cl)c3)Oc3cc2cc(c3O[C@@H]2O[C@H](CO)[C@@H](O)[C@H](O)[C@H]2O[C@H]2C[C@](C)(N)[C@H](O)[C@H](C)O2)Oc2ccc(cc2Cl)[C@H]1O [vancomycin]
- disruption of biofilm mass ([4]; S. aureus mature biofilm, 8 μM): approximately 50%

Compound: colistin
- inhibition of the LAL enzyme [2]: 79.76%±4.6
- decrease of TNF-α levels [11]: 97.53%±0.32
- decrease of IL-6 levels (interleukin-6 (IL-6)): 95.04%±0.56
- MIC [20]: 128 µM
